Structures can show the parent of a compound that is named as a salt.
Assays:
[1] = target: T1, human norepinephrine transporter (Homo sapiens, UniProt P23975); test: hNET receptor binding ([125I]-RTI-55, membranes of transfected HEK-293 cells); details: 50 pM [125I]-RTI-55, 90 min room temperature; IC50 converted by Cheng-Prusoff
T1 construct: host or cells: HEK-293
In short: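 Competition binding on membranes from HEK-293 cells transfected with human NET, using 50 pM [125I]-RTI-55 in Krebs-HEPES pH 7.4, drug 10^−5 to 10^−12 M in duplicate, 90 min at room temperature, filtration. Nonspecific binding defined with 10 μM desipramine; IC50 converted to Ki by Cheng-Prusoff.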

[2] = target: T2, human serotonin transporter (Homo sapiens, UniProt P31645); test: hSERT receptor binding ([125I]-RTI-55, membranes of transfected HEK-293 cells); details: 50 pM [125I]-RTI-55, 90 min room temperature; IC50 converted by Cheng-Prusoff
T2 construct: host or cells: HEK-293
Protocol: Cell pastes of HEK-293 cells transfected with the human serotonin transporter were supplied by the Pfizer Ann Arbor Protein Expression and Production Group. Pellets were resuspended in 400 to 700 mL of Krebs-HEPES assay buffer (25 mM HEPES, 122 mM NaCl, 3 mM KCl, 1.2 mM MgSO4, 1.3 mM CaCl2, and 11 mM glucose, pH 7.4) with a Polytron homogenizer at Setting 7 for 30 seconds. Aliquots of membranes (˜2.5 mg/mL protein) were stored in liquid nitrogen until used.
Assays were set up in FlashPlates pre-coated with 0.1% PEI in a total volume of 250 μL containing: drug (10^−5M to 10^−12M), cell membranes, and 50 pM [^125I]-RTI-55 (Perkin Elmer, NEX-272; specific activity 2200 Ci/mmol). The reaction was incubated and gently agitated for 90 minutes at room temperature, and terminated by removal of assay volume. Plates were covered, and bound [^125I]-RTI-55 was determined using a Wallac Trilux Beta Plate Counter. Test compounds were run in duplicate, and specific binding was defined as the difference between binding in the presence and absence of 10 μM citalopram.
Excel and GraphPad Prism software were used for data calculation and analysis. IC50 values were converted to Ki values using the Cheng-Prusoff equation. The Ki values for the hSERT are reported below in Table 1.

T2 sequence (P31645 whole entry): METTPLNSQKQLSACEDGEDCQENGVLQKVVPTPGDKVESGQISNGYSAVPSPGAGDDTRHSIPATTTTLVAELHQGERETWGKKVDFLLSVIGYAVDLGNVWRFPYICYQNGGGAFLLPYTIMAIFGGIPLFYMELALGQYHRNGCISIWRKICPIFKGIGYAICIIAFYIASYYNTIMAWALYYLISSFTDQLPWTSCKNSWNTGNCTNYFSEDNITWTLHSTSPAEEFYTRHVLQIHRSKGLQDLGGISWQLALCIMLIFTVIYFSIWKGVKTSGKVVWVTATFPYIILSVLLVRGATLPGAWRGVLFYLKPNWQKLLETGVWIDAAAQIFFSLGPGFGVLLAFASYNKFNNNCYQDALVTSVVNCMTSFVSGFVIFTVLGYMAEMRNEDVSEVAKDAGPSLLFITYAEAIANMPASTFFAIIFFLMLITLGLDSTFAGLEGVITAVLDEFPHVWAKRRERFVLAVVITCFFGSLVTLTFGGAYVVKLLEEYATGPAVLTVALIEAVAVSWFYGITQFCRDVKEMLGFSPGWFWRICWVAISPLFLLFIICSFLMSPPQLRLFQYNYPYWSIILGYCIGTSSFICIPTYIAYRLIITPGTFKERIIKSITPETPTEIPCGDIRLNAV
T1 sequence (P23975 whole entry): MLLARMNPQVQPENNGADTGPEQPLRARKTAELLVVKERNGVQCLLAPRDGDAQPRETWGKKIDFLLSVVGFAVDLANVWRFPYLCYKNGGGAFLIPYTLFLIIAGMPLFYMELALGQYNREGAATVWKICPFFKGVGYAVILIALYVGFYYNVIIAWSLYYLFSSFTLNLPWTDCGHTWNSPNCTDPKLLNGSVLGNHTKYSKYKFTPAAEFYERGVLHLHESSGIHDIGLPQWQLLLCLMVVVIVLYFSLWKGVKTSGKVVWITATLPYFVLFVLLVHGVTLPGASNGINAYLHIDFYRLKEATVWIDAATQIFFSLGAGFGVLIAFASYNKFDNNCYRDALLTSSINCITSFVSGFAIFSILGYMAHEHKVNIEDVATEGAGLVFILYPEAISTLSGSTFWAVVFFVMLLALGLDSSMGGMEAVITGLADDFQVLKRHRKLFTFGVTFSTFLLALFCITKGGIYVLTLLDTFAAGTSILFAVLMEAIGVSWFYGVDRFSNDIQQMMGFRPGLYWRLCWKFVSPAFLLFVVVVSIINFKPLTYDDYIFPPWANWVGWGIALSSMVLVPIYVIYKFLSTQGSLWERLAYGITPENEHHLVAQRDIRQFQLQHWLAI

| Compound | melting point | Ki [1] | Ki [2] |
| --- | --- | --- | --- |
| Fc1cccc(F)c1-c1nc(N2CCNCC2)nc2ccccc12 (as salt: hydrochloride) [Example 29, 4-(2,6-Difluoro-phenyl)-2-piperazin-4-yl-quinazoline hydrochloride] | 295 to 297 °C |  |  |
| CN[C@H]1CCN(c2nc(-c3ccccc3F)c3ccccc3n2)C1 (as salt: hydrochloride) [Example 35, (S)-(+)-1-[4-(2-Fluoro-phenyl)-quinazolin-2-yl]-pyrrolidin-3-yl}-methyl-amine hydrochloride] | 257 to 258 °C |  |  |
| Fc1ccc(-c2nc(NCC3CCNC3)nc3ccccc23)c(F)c1 (stereo not shown) [Example 155, [4-(2,4-Difluoro-phenyl)-quinazolin-2-yl]-pyrrolidin-3-ylmethyl-amine] |  | 425 nM | > 10000 nM |
| Fc1cccc(-c2nc(NC3CCNCC3)nc3ccccc23)c1F [Example 156, [4-(2,3-Difluoro-phenyl)-quinazolin-2-yl]-piperidin-4-yl-amine] |  | 221 nM | 6980 nM |
| CNC1CCN(c2nc(-c3cccc(F)c3F)c3ccccc3n2)C1 (stereo not shown) [Example 157, {1-[4-(2,3-Difluoro-phenyl)-quinazolin-2-yl]-pyrrolidin-3-yl}-methyl-amine] |  | 148 nM | 4250 nM |
| CNC1CCN(c2nc(-c3cccc(F)c3F)c3ccccc3n2)CC1 [Example 158] |  | 207 nM | 6030 nM |
| NCCCNc1nc(-c2cccc(F)c2F)c2ccccc2n1 [Example 159, N1-[4-(2,3-Difluoro-phenyl)-quinazolin-2-yl]-propane-1,3-diamine] |  | 123 nM | > 10000 nM |
| Fc1ccc(-c2nc(N3CCNCC3)c3ccccc3n2)c(F)c1 [Example 161, 2-(2,4-Difluoro-phenyl)-4-piperazin-1-yl-quinazoline] |  | 3480 nM | 382 nM |
| CC(C)[C@H]1CNCCN1c1nc(-c2cccc(F)c2F)c2ccccc2n1 [Example 166, S-4-(2,3-Difluoro-phenyl)-2-(2-isopropyl-piperazin-1-yl)-quinazoline] |  | 79.7 nM | 185 nM |
| CC(C)[C@H]1CNCCN1c1nc(-c2ccc(F)cc2F)c2ccccc2n1 [Example 167, S-4-(2,4-Difluoro-phenyl)-2-(2-isopropyl-piperazin-1-yl)-quinazoline] |  | 66.1 nM | 68.8 nM |
| R-4-(2,4-Difluoro-phenyl)-7-fluoro-2-(2-methyl-piperazin-1-yl)-quinazoline [Example 138] |  | 35.4 nM | 24.6 nM |
| S-4-(2,4-Difluoro-phenyl)-7-fluoro-2-(2-methyl-piperazin-1-yl)-quinazoline [Example 139] |  | 30.7 nM | 24.9 nM |

Results, then the compound that gave them:

| melting point | Ki [1] | Ki [2] | Compound |
| --- | --- | --- | --- |
|  | 60.7 nM | 976 nM | Fc1ccc2c(-c3ccccc3C(F)(F)F)nc(N3CCNCC3)nc2c1 [Example 160, 7-Fluoro-2-piperazin-1-yl-4-(2-trifluoromethyl-phenyl)-quinazoline] |
|  | 11.4 nM | 52.8 nM | Fc1ccc2c(-c3c(F)cccc3F)nc(C3CCNCC3)nc2c1 [Example 162, 4-(2,6-Difluoro-phenyl)-7-fluoro-2-piperidin-4-yl-quinazoline] |
|  | 12.6 nM | 441 nM | Fc1ccc2c(-c3ccccc3)nc(N3CCNCC3)nc2c1F [Example 163, 7,8-Difluoro-4-phenyl-2-piperazin-1-yl-quinazoline] |
|  | 31.8 nM | 18 nM | CC[C@H]1CNCCN1c1nc(-c2c(F)cccc2F)c2ccccc2n1 [Example 164, S-4-(2,6-Difluoro-phenyl)-2-(2-ethyl-piperazin-1-yl)-quinazoline] |
|  | 31 nM | 14.4 nM | CC[C@H]1CNCCN1c1nc(-c2ccc(F)cc2F)c2ccccc2n1 [Example 165, S-4-(2,4-Difluoro-phenyl)-2-(2-ethyl-piperazin-1-yl)-quinazoline] |
|  | 23.4 nM | 26.5 nM | S-[4-(2,4-Difluoro-phenyl)-7-fluoro-quinazolin-2-yl]-pyrrolidin-3-yl-amine [Example 144] |
